The assay concerns cancer cells. As to the kind of experiment: MTS assay: inhibition of cell growth (formazan absorbance at 492 nm after 72 hours with test compound). Format: cell-based. As to conditions: inhibition class. As for the experimental part:
Cells were maintained at 37° C., 5% CO2 in DMEM media supplemented with 1% fetal bovine serum, penicillin/streptomycin and fungizone (Invitrogen). Cells were seeded into 96-well tissue culture plates at 3000 per well and cultured at 37° C. for 18 hours. Test compounds were dissolved and diluted to 300× in DMSO then diluted 1:40 in DMEM. Cells were incubated with test compounds for 72 hours followed by incubation with tetrazolium compound (3-(4,5-dimethylthiazol-2-yl)-5-(3-carboxymethoxyphenyl)-2-(4-sulfophenyl)-2H-tetrazolium, inner salt; MTS) and the electron coupling reagent, phenazine methosulfate (PMS) for 4 hours. […] The ability of compounds to inhibit cell growth in this assay is correlated with the reduction of dehydrogenase enzyme activity found in metabolically active cells. The measurement of the absorbance of the formazan was assessed using an ENVISION™ (Perkin Elmer) microplate reader at 492 nm. The calculated IC50 value is the concentration of the test compound that causes a 50% decrease in the absorbance. […] A=>79% inhibition, B=>50 to 79% inhibition, C=<50% inhibition.

Where [1] appears, read: Homo sapiens, DLD-1 cells, read-out: DLD-1, MTS 72 hours at 10 uM.
[2] abbreviates: Homo sapiens, KATO III cells, read-out: KATO III, MTS 72 hours at 10 uM.
The mark [3] stands for this setting: Homo sapiens, MDA-MB-231 cells, read-out: MDA-MB-231, MTS 72 hours at 10 uM.
[4] abbreviates: Homo sapiens, NCI-H1299 cells, read-out: NCI-H1299, MTS 72 hours at 10 uM.
[5] abbreviates: Homo sapiens, PC-3 cells, read-out: PC-3, MTS 72 hours at 10 uM.
Setting [6] is: PACA-2 cells, read-out: PACA-2, MTS 72 hours at 10 uM.

Structures are written as SMILES. Like-named read-outs stand apart in the source and are kept apart here.

For the compound `CN(CCc1ccccc1)c1nc2c3c(n[nH]c3n1)CCN2Cc1ccccc1` [Compound 81, 6-benzyl-N-methyl-N-(2-phenylethyl)-2,6,7,8-tetrahydro-1,2,3,5,6-pentaazaacenaphthylen-4-amine], the inhibition at 10 µM under setting [1] was under 50%; the inhibition at 10 µM under setting [2] is under 50%; the inhibition at 10 µM under setting [3] was under 50%; the inhibition at 10 µM under setting [4] was under 50%; the inhibition at 10 µM under setting [5] was under 50%; the inhibition at 10 µM under setting [6] was under 50%.
As to `COc1ccc(CN2CCc3n[nH]c4nc(NCc5ccccc5)nc2c34)cc1` [Compound 100, N-benzyl-6-(4-methoxybenzyl)-2,6,7,8-tetrahydro-1,2,3,5,6-pentaazaacenaphthylen-4-amine], the inhibition at 10 µM is under 50% under setting [1]; under 50% under setting [2]; under 50% under setting [3]; under 50% under setting [4]; under 50% under setting [5]; under 50% under setting [6].
In the case of `COc1ccc(CN2CCc3n[nH]c4nc(N5CCOCC5)nc2c34)cc1` [Compound 110, 6-(4-methoxybenzyl)-4-morpholin-4-yl-2,6,7,8-tetrahydro-1,2,3,5,6-pentaazaacenaphthylene], the inhibition at 10 µM is under 50% under setting [1]; under 50% under setting [2]; under 50% under setting [3]; under 50% under setting [4]; under 50% under setting [5]; under 50% under setting [6].
Take `Fc1ccc(CCNc2nc3c4c(n[nH]c4n2)CCN3)cc1` [Compound 124, N-[2-(4-fluorophenyl)ethyl]-2,6,7,8-tetrahydro-1,2,3,5,6-pentaazaacenaphthylen-4-amine]: the inhibition at 10 µM was under 50% under setting [1]; under 50% under setting [2]; under 50% under setting [3]; under 50% under setting [4]; under 50% under setting [5]; 50 to 79% under setting [6].
Regarding `C1CCC(Nc2nc3c4c(n[nH]c4n2)CCN3)CC1` [Compound 123, N-cyclohexyl-2,6,7,8-tetrahydro-1,2,3,5,6-pentaazaacenaphthylen-4-amine], the inhibition at 10 µM under setting [1] was under 50%; the inhibition at 10 µM under setting [2] is under 50%; the inhibition at 10 µM under setting [3] is under 50%; the inhibition at 10 µM under setting [4] was under 50%; the inhibition at 10 µM under setting [5] was under 50%; the inhibition at 10 µM under setting [6] is under 50%.
Turning to `c1ccc(CN2CCc3n[nH]c4nc(NC5CCC5)nc2c34)cc1` [Compound 49, 6-benzyl-N-cyclobutyl-2,6,7,8-tetrahydro-1,2,3,5,6-pentaazaacenaphthylen-4-amine], the inhibition at 10 µM reads like this: under setting [1], under 50%; under setting [2], under 50%; under setting [3], 50 to 79%; under setting [4], under 50%; under setting [5], under 50%; under setting [6], under 50%.
As for `Fc1ccc(CCNc2nc3c4c(n[nH]c4n2)CCN3c2ccccc2)cc1` [Compound 221, N-[2-(4-fluorophenyl)ethyl]-6-phenyl-2,6,7,8-tetrahydro-1,2,3,5,6-pentaazaacenaphthylen-4-amine], the inhibition at 10 µM is, setting by setting: under setting [1], under 50%; under setting [2], under 50%; under setting [3], under 50%; under setting [4], under 50%; under setting [5], under 50%; under setting [6], under 50%.
For `COc1ccc(CN2CCc3n[nH]c4nc(Nc5ccc(N6CCN(C(=O)OCc7ccccc7)CC6)cc5)nc2c34)cc1` [Compound 119, benzyl 4-(4-{[6-(4-methoxybenzyl)-2,6,7,8-tetrahydro-1,2,3,5,6-pentaazaacenaphthylen-4-yl]amino}phenyl)piperazine-1-carboxylate], the inhibition at 10 µM is, setting by setting: under setting [1], over 79%; under setting [2], over 79%; under setting [3], over 79%; under setting [4], 50 to 79%; under setting [5], 50 to 79%; under setting [6], 50 to 79%.
As for `COc1ccc(CN2CCc3n[nH]c4nc(NCc5ccc(Cl)cc5)nc2c34)cc1` [Compound 117, N-(4-chlorobenzyl)-6-(4-methoxybenzyl)-2,6,7,8-tetrahydro-1,2,3,5,6-pentaazaacenaphthylen-4-amine], the inhibition at 10 µM under setting [1] is 50 to 79%; the inhibition at 10 µM under setting [2] is under 50%; the inhibition at 10 µM under setting [3] was in the range of 50 to 79%; the inhibition at 10 µM under setting [4] fell in the range of 50 to 79%; the inhibition at 10 µM under setting [5] is under 50%; the inhibition at 10 µM under setting [6] was under 50%.
Regarding `O=C(NCC1CCCCC1)C1CN(Cc2ccccc2)c2nc(NCc3ccccc3)nc3[nH]nc1c23` (stereo not drawn) [Compound 240, 6-benzyl-4-(benzylamino)-N-(cyclohexylmethyl)-2,6,7,8-tetrahydro-1,2,3,5,6-pentaazaacenaphthylene-8-carboxamide], the inhibition at 10 µM reads like this: under setting [1], over 79%; under setting [2], over 79%; under setting [3], under 50%; under setting [4], over 79%; under setting [5], over 79%; under setting [6], under 50%.
With `c1ccc(CN2CCc3n[nH]c4nc(N5CCN(Cc6cccnc6)CC5)nc2c34)cc1` [Compound 88, 6-benzyl-4-[4-(pyridin-3-ylmethyl)piperazin-1-yl]-2,6,7,8-tetrahydro-1,2,3,5,6-pentaazaacenaphthylene], the inhibition at 10 µM reads like this: under setting [1], under 50%; under setting [2], over 79%; under setting [3], over 79%; under setting [4], under 50%; under setting [5], over 79%; under setting [6], under 50%.
Consider `COc1ccc2c(CCNc3nc4c5c(n[nH]c5n3)CCN4Cc3ccccc3)c[nH]c2c1` [Compound 98, 6-benzyl-N-[2-(6-methoxy-1H-indol-3-yl)ethyl]-2,6,7,8-tetrahydro-1,2,3,5,6-pentaazaacenaphthylen-4-amine], for which the inhibition at 10 µM reads like this: under setting [1], under 50%; under setting [2], 50 to 79%; under setting [3], 50 to 79%; under setting [4], 50 to 79%; under setting [5], over 79%; under setting [6], under 50%.
Regarding `COc1ccc(CN2CCc3n[nH]c4nc(NCCc5ccccc5)nc2c34)cc1` [Compound 116, 6-(4-methoxybenzyl)-N-(2-phenylethyl)-2,6,7,8-tetrahydro-1,2,3,5,6-pentaazaacenaphthylen-4-amine], the inhibition at 10 µM runs as follows: under setting [1], over 79%; under setting [2], over 79%; under setting [3], over 79%; under setting [4], over 79%; under setting [5], over 79%; under setting [6], over 79%.
As to `Cn1c(CNc2nc3c4c(n[nH]c4n2)CCN3Cc2ccccc2)nc2ccccc21` [Compound 21, 6-benzyl-N-[(1-methyl-1H-benzimidazol-2-yl)methyl]-2,6,7,8-tetrahydro-1,2,3,5,6-pentaazaacenaphthylen-4-amine], the inhibition at 10 µM under setting [1] was under 50%; the inhibition at 10 µM under setting [2] was in the range of 50 to 79%; the inhibition at 10 µM under setting [3] is under 50%; the inhibition at 10 µM under setting [4] was under 50%; the inhibition at 10 µM under setting [5] was under 50%; the inhibition at 10 µM under setting [6] was under 50%.

The record behind these values is patent US8343983B2, “Substituted pyrazolo-pyrimidine compounds” (ArQule, Inc., priority 2009, dated 2013).
